{"source": "paper PMC9367672", "about": "“In vitro differences in toddalolactone metabolism in various species and its effect on cytochrome P450 expression” (Pharmaceutical Biology, 2022)", "key": {"[1]": {"assay": "Enzyme kinetics of toddalolactone metabolism in mouse liver microsomes (oxidative metabolism)", "type": "in vitro ADME", "details": "pH 7.4; MOMs (mouse liver microsomes); P450-catalyzed oxidation; P2 formation; Vmax/Km", "method": "(§1) The CYP reaction system (200 μL) consisted of 0.1 M potassium phosphate buffer (pH 7.4), an NADPH-generating system (1 mM NADPH, 10 mM G-6-P, 1 unit/mL G-6-PD, 4 mM MgCl2), and liver microsomes or recombinant human microsomes (supersomes). Each of the in vitro enzymatic assays using liver microsomes was linear with respect to incubation time and amount of protein. After a pre-incubation at 37 °C for 3 min, the reactions were initiated by adding NADP^+. After incubating for 60 min, the reactions were quenched by adding 200 μL of ice-cold acetonitrile. Samples were centrifuged at 18,000 g for 15 min at 4 °C and 10 μL of supernatant was analyzed using an HPLC system. NADPH or CYP enzyme sources were not used in the control group to ensure that the metabolic reactions were CYP- and NADPH-dependent. All incubation assays were completed in triplicate. The data are presented as mean ± standard deviation (SD).\nThe enzyme kinetics of toddalolactone in oxidative metabolism and glucuronidation were determined by incubating liver microsomes (0.2 mg/mL) or CYPs (15 nM) with different concentrations of toddalolactone (1–200 μM). […] The in vitro intrinsic clearance (CLint) was calculated based on the Vmax/Km ratio. Metabolites were quantified using the standard curve for toddalolactone because of the absence of metabolite standards. […]\nThe enzyme kinetics in oxidative metabolism and glucuronidation of toddalolactone were studied, and preliminary experiments were performed to ensure that metabolites were formed in the linear range of both reaction time and microsomal protein concentration. […] Based on the results of toddalolactone metabolism in different species, the kinetic parameter values in RLMs, DLMs, MLMs, HLMs, RAMs, MIMs, PLMs, CYP1A1 and CYP3A5 were calculated using P4, P4, P4, P4, P2, P2, P4, P4 and P4 data in oxidative metabolism, respectively. In the glucuronidation reaction, the kinetic parameter values in RLMs, MLMs, HLMs, RAMs and PLMs were calculated using P5, P6, P6, P6 and P5 data, respectively."}, "[2]": {"design": "method as in Zhou et al. ([2021])", "details": "mouse blood; intravenous administration; ref Zhou et al. ([2021]); cited from earlier work"}, "HLMs": {"system": "HLMs", "assay": "Prediction of in vivo hepatic clearance in humans from HLM kinetics", "type": "in vitro ADME, human", "method": "The in vivo hepatic clearances in oxidative metabolism and glucuronidation of toddalolactone were calculated using Equations (4)–(6) (Li et al. [2008]): (4) CLint in vitro=∑i=1nVmax(Mi)/Km(Mi) (5) CLint in vivo=CLint in vitro⋅SF (6) CLH=QH⋅fu⋅CLint in vivo/QH+fu⋅CLint in vivo where SF is the milligrams of microsomal protein per gram of liver multiplied by the grams of liver weight; CLH is hepatic clearance; fu is the unbound fraction in the blood (the value of fu was set to 1 due to the absence of available data for toddalolactone); QH is the blood flow in the liver; and Mi is the metabolite of toddalolacone. The physiological parameters to calculate intrinsic clearance were as follows. The liver weight of dogs, rats and humans were 32, 40 and 25.7 g/kg body weight, respectively; the content of microsomal protein was 77.9, 44.8 and 48.8 mg/g of liver; and the blood flow in the liver was 30.9, 55.2 and 20.7 mL/(min ⋅ kg), respectively (Naritomi et al. [2001])."}, "MLMs": {"system": "MLMs", "assay": "Enzyme kinetics of toddalolactone metabolism in monkey liver microsomes (oxidative metabolism and glucuronidation)", "type": "in vitro ADME", "details": "MLMs; for V max: toddalolactone 1–200 μM", "method": "as §1\n(§2) In the UGT reaction system, liver microsomes were incubated in 200 μL of the reaction system containing 4 mM UDPGA, 5 mM MgCl2, 20 µg/mL alamethicin, and 50 mM Tris-HCl buffer (pH 7.4). After pre-incubation at 37 °C for 3 min, UDPGA was added to the mixture to initiate the reactions. The mixtures were incubated at 37 °C for 60 min, followed by the addition of 200 μL of cold methanol to terminate the reactions. After centrifugation at 18,000 g for 15 min, 10 μL of the supernatant was analyzed by HPLC.\n(§3) The enzyme kinetics of toddalolactone in oxidative metabolism and glucuronidation were determined by incubating liver microsomes (0.2 mg/mL) or CYPs (15 nM) with different concentrations of toddalolactone (1–200 μM). The kinetic parameters including Km and Vmax were obtained by fitting the experimental data to the Michaelis–Menten equation (Equation (1)), biphasic kinetics equation (Equation (2)), or substrate inhibition equation (Equation (3)) (He et al. [2018]), and the results were graphically represented on Eadie–Hofstee plots. The in vitro intrinsic clearance (CLint) was calculated based on the Vmax/Km ratio. Metabolites were quantified using the standard curve for toddalolactone because of the absence of metabolite standards. All incubations were repeated in three independent experiments. Kinetic constants were expressed with mean ± SD: (1) V=Vmax×[S]/Km+[S] (2) V=Vmax1×[S]/Ks1+[S]+Vmax2×[S]/Ks2+[S] (3) V=Vmax×[S]/Ks+[S]+[S]^2/Ksi where v is the rate of reaction, Vmax is the estimated maximum velocity, [S] is the substrate concentration, and Km is the affinity constant of the substrate; Vmax1 and Vmax2 represent the estimated maximum velocity of the two metabolic phases; Ks1 and Ks2 represent the affinity constants for two metabolic phases; Ks and Ksi are the substrate affinity and inhibition constants, respectively.\n(§4) The enzyme kinetics in oxidative metabolism and glucuronidation of toddalolactone were studied, and preliminary experiments were performed to ensure that metabolites were formed in the linear range of both reaction time and microsomal protein concentration. The metabolite with the largest peak area was used to calculate the kinetic parameter values (Km, Vmax and CLint). Based on the results of toddalolactone metabolism in different species, the kinetic parameter values in RLMs, DLMs, MLMs, HLMs, RAMs, MIMs, PLMs, CYP1A1 and CYP3A5 were calculated using P4, P4, P4, P4, P2, P2, P4, P4 and P4 data in oxidative metabolism, respectively. In the glucuronidation reaction, the kinetic parameter values in RLMs, MLMs, HLMs, RAMs and PLMs were calculated using P5, P6, P6, P6 and P5 data, respectively."}, "[3]": {"assay": "Enzyme kinetics of toddalolactone metabolism in monkey liver microsomes (oxidative metabolism and glucuronidation)", "type": "in vitro ADME", "details": "monkey, liver microsomes, pH 7.4, MLMs, Vmax/Km", "method": "as §1, §2, §3, §4"}, "CYP1A1": {"biological_target": "T1, CYP1A1 (Homo sapiens, UniProt P04798)", "T1 sequence (P04798 1-512)": "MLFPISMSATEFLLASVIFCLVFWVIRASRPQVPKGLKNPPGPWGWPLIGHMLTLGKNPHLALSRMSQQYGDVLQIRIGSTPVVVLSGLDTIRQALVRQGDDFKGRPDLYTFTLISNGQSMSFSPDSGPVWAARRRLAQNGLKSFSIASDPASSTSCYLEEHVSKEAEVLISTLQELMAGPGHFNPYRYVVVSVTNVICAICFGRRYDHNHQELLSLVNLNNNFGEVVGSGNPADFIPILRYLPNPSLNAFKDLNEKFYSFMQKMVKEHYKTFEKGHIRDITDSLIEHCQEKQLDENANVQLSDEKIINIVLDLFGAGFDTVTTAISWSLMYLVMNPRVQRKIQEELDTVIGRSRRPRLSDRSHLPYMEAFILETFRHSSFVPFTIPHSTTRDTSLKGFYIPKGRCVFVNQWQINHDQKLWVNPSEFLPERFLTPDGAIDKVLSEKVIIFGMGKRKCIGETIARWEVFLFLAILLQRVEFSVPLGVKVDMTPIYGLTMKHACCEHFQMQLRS", "assay": "Enzyme kinetics of toddalolactone metabolism by recombinant CYP1A1", "details": "recombinant CYP1A1 (15 nM); P4 formation"}, "[4]": {"details": "P450-catalyzed oxidation, P4 formation"}, "[5]": {"details": "glucuronide metabolism, P6 formation"}}}
{"smiles": "COc1cc2oc(=O)ccc2c(OC)c1C[C@@H](O)C(C)(C)O", "note": "[toddalolactone]", "values": [{"measurement": "microsomal CLint", "setting": "[1]", "value": 1.61, "unit": "µL/min/mg"}, {"measurement": "t1/2", "setting": "[2]", "value": 48, "unit": "min"}, {"measurement": "CLH versus hepatic blood flow (QH)", "setting": "HLMs; HLMs", "value": 8.68, "unit": "%"}, {"measurement": "clearance class according to predicted CLH", "setting": "HLMs; humans", "value": "low-clearance (low-clearance drugs (<30% liver blood flow))"}, {"measurement": "in vivo hepatic clearance (CLH)", "setting": "HLMs; humans, predicted from kinetic parameters of P1–P6, fu set to 1", "value": "5.25 mL/(min/kg body weight)"}, {"measurement": "K m", "setting": "MLMs; [4]", "value": "255.67 ± 58.29", "unit": "µM"}, {"measurement": "V max", "setting": "MLMs; [4]", "value": "161.4 ± 25.73", "unit": "pmol/min/mg protein"}, {"measurement": "K m", "setting": "MLMs; [5]", "value": "154.51 ± 42.46", "unit": "µM"}, {"measurement": "V max", "setting": "MLMs; [5]", "value": "187.53 ± 27.77", "unit": "pmol/min/mg protein"}, {"measurement": "microsomal CLint", "setting": "[3]; [4]", "value": 0.63, "unit": "µL/min/mg"}, {"measurement": "microsomal CLint", "setting": "[3]; [5]", "value": 1.21, "unit": "µL/min/mg"}, {"measurement": "K m", "setting": "CYP1A1", "value": "60.12 ± 6.67", "unit": "µM"}]}
